Measured values from patent US20060069132A1, “Azolecarboxamide herbicides” (priority 2004, published 2006).

Assays:
[1] = system: barnyardgrass; assay: Test A pre-/postemergence herbicide test; format: in vivo, Echinochloa crus-galli
Summary of the method: (§1)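 Both application timings were run together: directed soil spray over freshly planted seeds in sandy loam, and runoff spray onto 2–10 cm seedlings. Evaluation after ~10 days in greenhouse used a 0–100 visual scale versus untreated controls.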

[2] = system: large crabgrass; assay: Test A pre-/postemergence herbicide test; format: in vivo, Digitaria sanguinalis
Summary of the method: as §1

[3] = system: giant foxtail; assay: Test A pre-/postemergence herbicide test; format: in vivo, Setaria faberi
Summary of the method: as §1

[4] = system: rice; assay: Test C flooded paddy test; format: in vivo, Oryza sativa; conditions: for Plant response rating, Rice: visual rating after 12 to 14 days
Summary of the method: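 Injury scored visually against controls on a 0 (no effect) to 100 (complete control) scale, 12 to 14 days after treatment in greenhouse. Flooded paddy plants treated at 2-leaf stage; postemergence plants at 1- to 4-leaf stage, 2 to 18 cm tall.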

[5] = system: smallflower umbrella sedge; assay: Test C flooded paddy test; format: in vivo, Cyperus difformis; conditions: for Plant response rating, Sedge, Umbrella: visual rating after 12 to 14 days
[6] = Postemergence, 500 g ai/ha, 0 to 100 scale, 0 no effect, 100 complete control
[7] = Postemergence, 2000 g ai/ha, 0 to 100 scale, 0 no effect, 100 complete control
[8] = Preemergence, 500 g ai/ha, visual rating, 0 to 100 scale (0 no effect, 100 complete control)
[9] = Preemergence, 2000 g ai/ha, 0 to 100 scale, 0 no effect, 100 complete control
[10] = 62 g ai/ha, scale 0 to 100 (0 no effect, 100 complete control)
[11] = 125 g ai/ha, scale of 0 to 100, 0 is no effect, 100 is complete control
[12] = 250 g ai/ha, scale 0 to 100 (0 no effect, 100 complete control)
[13] = 500 g ai/ha, scale 0 to 100 (0 no effect, 100 complete control)
[14] = Postemergence, 125 g ai/ha, 0 to 100 scale, 0 no effect, 100 complete control
[15] = preemergence, 125 g ai/ha, visual injury, 0 to 100 scale (0 no effect, 100 complete control)
[16] = 250 g ai/ha, scale of 0 to 100, 0 is no effect, 100 is complete control
[17] = Preemergence, 2000 g ai/ha, visual rating, 0 to 100 scale (0 no effect, 100 complete control)
[18] = 125 g ai/ha, scale 0 to 100 (0 no effect, 100 complete control)
[19] = preemergence, 500 g ai/ha, visual injury, 0 to 100 scale (0 no effect, 100 complete control)

Row | Compound | Plant response rating, Barnyardgrass [1, 7] | Barnyardgrass plant response rating [1, 8] | Plant response rating, Crabgrass, Large [2, 7] | Crabgrass, Large plant response rating [2, 8] | Plant response rating, Foxtail, Giant [3, 7] | Foxtail, Giant plant response rating [3, 8] | Rice plant response rating [4, 10] | Plant response rating, Rice [4, 13] | Sedge, Umbrella plant response rating [5, 10] | Plant response rating, Sedge, Umbrella [5, 13] | Rice plant response rating [4, 16] | Sedge, Umbrella plant response rating [5, 16] | Barnyardgrass plant response rating [1, 6] | Barnyardgrass plant response rating [1, 17] | Crabgrass, Large plant response rating [2, 6] | Crabgrass, Large plant response rating [2, 17] | Foxtail, Giant plant response rating [3, 6] | Foxtail, Giant plant response rating [3, 17] | Rice plant response rating [4, 18] | Sedge, Umbrella plant response rating [5, 18] | other results
1 | CCn1nc(C(C)(C)C)cc1C(=O)Nc1cccc(C(=O)NCCF)c1 [Compound 45] | 100 | 80 | 90 | 55 | 95 | 75 | 30 | 65 | 55 | 80 |  |  |  |  |  |  |  |  |  |  | Plant response rating, Barnyardgrass [1, 6]: 100; Barnyardgrass plant response rating [1, 9]: 95; Plant response rating, Crabgrass, Large [2, 6]: 80; Crabgrass, Large plant response rating [2, 9]: 75; Plant response rating, Foxtail, Giant [3, 6]: 90; Foxtail, Giant plant response rating [3, 9]: 100; Rice plant response rating [4, 11]: 30; Plant response rating, Rice [4, 12]: 35; Sedge, Umbrella plant response rating [5, 11]: 60; Plant response rating, Sedge, Umbrella [5, 12]: 80
2 | CCn1nc(C(C)(C)C)cc1C(=O)Nc1cccc(C(=O)NC(C)C)c1 [Compound 51] |  | 85 |  | 80 |  | 100 | 0 | 50 | 45 | 80 | 15 | 65 |  |  |  |  |  |  |  |  | Barnyardgrass plant response rating [1, 14]: 50; Plant response rating, Barnyardgrass [1, 6]: 75; Barnyardgrass plant response rating [1, 15]: 60; Crabgrass, Large plant response rating [2, 14]: 30; Plant response rating, Crabgrass, Large [2, 6]: 30; Crabgrass, Large plant response rating [2, 15]: 80; Foxtail, Giant plant response rating [3, 14]: 20; Plant response rating, Foxtail, Giant [3, 6]: 40; Foxtail, Giant plant response rating [3, 15]: 70; Rice plant response rating [4, 11]: 0; Sedge, Umbrella plant response rating [5, 11]: 50
3 | CCn1nc(C(C)(C)C)cc1C(=O)Nc1cccc(C(C)=O)c1 [Compound 122] | 85 | 90 | 65 | 70 | 80 | 65 | 0 | 50 | 50 | 80 | 10 | 70 | 75 | 95 | 35 | 95 | 80 | 85 |  |  | Rice plant response rating [4, 11]: 10; Sedge, Umbrella plant response rating [5, 11]: 60
4 | CCOc1cccc(NC(=O)c2cc(C(C)(C)C)nn2CC)c1 [Compound 136] | 60 | 65 | 70 | 85 | 50 | 60 | 30 | 70 | 65 | 85 | 50 | 85 | 55 | 85 | 35 | 90 | 25 | 70 | 35 | 80 | 
5 | CCn1nc(C(C)(C)C)cc1C(=O)Nc1cccc(OCCCF)c1 [Compound 138] | 30 | 30 | 30 | 70 | 35 | 30 | 5 | 40 | 0 | 95 | 5 | 75 | 15 | 80 | 20 | 90 | 20 | 90 | 5 | 40 | 
6 | CCn1nc(C(C)(C)C)cc1C(=O)Nc1cc(C(=O)NCC2CC2)ccn1 [Compound 155] |  |  |  |  |  |  | 0 | 35 | 0 | 75 | 0 | 65 |  |  |  |  |  |  | 0 | 30 | 
7 | CCc1nc(C(C)(C)C)sc1C(=O)Nc1cccc(C(=O)NCCF)c1 [Compound 209] | 70 |  | 40 |  | 25 |  | 0 | 65 | 55 | 80 | 45 | 65 | 30 | 80 | 20 | 95 | 15 | 90 | 45 | 55 | Barnyardgrass plant response rating [1, 19]: 60; Crabgrass, Large plant response rating [2, 19]: 75; Foxtail, Giant plant response rating [3, 19]: 50
8 | CCc1nc(C(C)(C)C)sc1C(=O)Nc1cccc(C(=O)NC(C)(C)C)n1 [Compound 216] | 15 |  | 20 |  | 20 |  | 0 | 30 | 20 | 50 | 0 | 30 | 0 | 35 | 20 | 55 | 20 | 70 | 0 | 30 | Barnyardgrass plant response rating [1, 19]: 15; Crabgrass, Large plant response rating [2, 19]: 15; Foxtail, Giant plant response rating [3, 19]: 25
9 | CCNC(=O)c1ccc(F)c(NC(=O)c2cc(C(C)(C)C)nn2CC)n1 [Compound 278] | 60 |  | 5 |  | 15 |  |  | 30 |  | 75 | 15 | 65 | 30 | 80 | 10 | 60 | 5 | 85 | 0 | 25 | Barnyardgrass plant response rating [1, 19]: 50; Crabgrass, Large plant response rating [2, 19]: 25; Foxtail, Giant plant response rating [3, 19]: 60; Rice plant response rating ([4]; 62 g ai/ha, scale 0 to 100): 0; Sedge, Umbrella plant response rating ([5]; 62 g ai/ha, scale 0 to 100): 0
10 | CCn1nc(C(C)(C)C)cc1C(=O)Nc1cccc(OS(=O)(=O)CC)c1 [Compound 408] |  |  |  |  |  |  |  | 55 |  | 85 | 45 | 85 |  |  |  |  |  |  | 35 | 80 | Rice plant response rating ([4]; 62 g ai/ha, scale 0 to 100): 25; Sedge, Umbrella plant response rating ([5]; 62 g ai/ha, scale 0 to 100): 60
